The text below walks through data of ChEMBL document CHEMBL1134036, “Discovery and SAR of diarylsulfide cyclopropylamide LFA-1/ICAM-1 interaction antagonists” (Bioorg Med Chem Lett, 2001).

The target of series [1] is T1, Intercellular adhesion molecule (ICAM-1), Integrin alpha-L/beta-2 (Homo sapiens, UniProt P05107+P20701). Description: Ability to block the adherence of leukocyte function-associated antigen-1 (LFA-1) expressing JY-8 cells and intercellular adhesion molecule (ICAM-1) by 50% in absence of serum. The class given is cell-based.
T1 sequence (P20701 whole entry): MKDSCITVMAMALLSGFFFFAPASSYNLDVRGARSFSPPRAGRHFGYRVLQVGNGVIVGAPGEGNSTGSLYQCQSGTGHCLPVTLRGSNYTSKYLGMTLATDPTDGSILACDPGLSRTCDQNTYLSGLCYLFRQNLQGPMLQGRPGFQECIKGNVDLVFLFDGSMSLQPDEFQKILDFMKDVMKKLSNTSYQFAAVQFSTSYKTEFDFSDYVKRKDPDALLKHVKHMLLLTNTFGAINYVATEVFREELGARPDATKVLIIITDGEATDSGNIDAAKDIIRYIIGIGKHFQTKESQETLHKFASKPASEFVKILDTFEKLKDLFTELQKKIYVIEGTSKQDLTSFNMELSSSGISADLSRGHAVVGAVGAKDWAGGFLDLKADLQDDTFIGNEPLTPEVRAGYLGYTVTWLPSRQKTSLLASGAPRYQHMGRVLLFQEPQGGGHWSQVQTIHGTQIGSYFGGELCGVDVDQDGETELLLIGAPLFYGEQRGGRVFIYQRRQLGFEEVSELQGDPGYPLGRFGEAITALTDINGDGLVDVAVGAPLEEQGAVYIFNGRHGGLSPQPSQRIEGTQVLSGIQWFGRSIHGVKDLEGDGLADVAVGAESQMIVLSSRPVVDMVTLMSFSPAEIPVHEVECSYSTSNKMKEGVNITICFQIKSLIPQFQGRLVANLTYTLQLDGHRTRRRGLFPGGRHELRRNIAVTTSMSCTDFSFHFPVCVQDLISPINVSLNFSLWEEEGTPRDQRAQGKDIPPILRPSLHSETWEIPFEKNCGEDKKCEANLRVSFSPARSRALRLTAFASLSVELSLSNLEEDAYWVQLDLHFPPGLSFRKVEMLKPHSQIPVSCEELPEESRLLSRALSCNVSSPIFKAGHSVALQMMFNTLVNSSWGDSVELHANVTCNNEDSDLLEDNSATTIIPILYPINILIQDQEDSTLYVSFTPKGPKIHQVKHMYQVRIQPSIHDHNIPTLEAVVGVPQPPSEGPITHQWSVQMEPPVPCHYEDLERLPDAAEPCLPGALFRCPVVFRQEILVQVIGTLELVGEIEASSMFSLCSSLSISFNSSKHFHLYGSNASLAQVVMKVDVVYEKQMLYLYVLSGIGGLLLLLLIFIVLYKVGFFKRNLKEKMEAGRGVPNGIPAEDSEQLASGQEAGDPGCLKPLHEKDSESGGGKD
T1 sequence (P05362 whole entry, further chain): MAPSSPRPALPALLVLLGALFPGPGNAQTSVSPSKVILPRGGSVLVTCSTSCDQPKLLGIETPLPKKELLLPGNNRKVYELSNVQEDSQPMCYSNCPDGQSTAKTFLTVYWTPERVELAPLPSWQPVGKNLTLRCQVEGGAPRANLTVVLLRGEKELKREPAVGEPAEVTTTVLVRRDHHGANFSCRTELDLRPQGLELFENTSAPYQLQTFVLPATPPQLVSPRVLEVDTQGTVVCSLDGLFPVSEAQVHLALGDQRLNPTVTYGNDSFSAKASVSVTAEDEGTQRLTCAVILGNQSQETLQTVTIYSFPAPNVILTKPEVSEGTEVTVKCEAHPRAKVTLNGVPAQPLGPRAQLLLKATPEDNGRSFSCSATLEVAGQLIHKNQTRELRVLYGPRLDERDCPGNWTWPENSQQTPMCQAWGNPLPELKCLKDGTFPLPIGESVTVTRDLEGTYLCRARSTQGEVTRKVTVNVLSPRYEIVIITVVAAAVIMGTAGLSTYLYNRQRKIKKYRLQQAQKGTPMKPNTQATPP
T1 sequence (P05107 whole entry): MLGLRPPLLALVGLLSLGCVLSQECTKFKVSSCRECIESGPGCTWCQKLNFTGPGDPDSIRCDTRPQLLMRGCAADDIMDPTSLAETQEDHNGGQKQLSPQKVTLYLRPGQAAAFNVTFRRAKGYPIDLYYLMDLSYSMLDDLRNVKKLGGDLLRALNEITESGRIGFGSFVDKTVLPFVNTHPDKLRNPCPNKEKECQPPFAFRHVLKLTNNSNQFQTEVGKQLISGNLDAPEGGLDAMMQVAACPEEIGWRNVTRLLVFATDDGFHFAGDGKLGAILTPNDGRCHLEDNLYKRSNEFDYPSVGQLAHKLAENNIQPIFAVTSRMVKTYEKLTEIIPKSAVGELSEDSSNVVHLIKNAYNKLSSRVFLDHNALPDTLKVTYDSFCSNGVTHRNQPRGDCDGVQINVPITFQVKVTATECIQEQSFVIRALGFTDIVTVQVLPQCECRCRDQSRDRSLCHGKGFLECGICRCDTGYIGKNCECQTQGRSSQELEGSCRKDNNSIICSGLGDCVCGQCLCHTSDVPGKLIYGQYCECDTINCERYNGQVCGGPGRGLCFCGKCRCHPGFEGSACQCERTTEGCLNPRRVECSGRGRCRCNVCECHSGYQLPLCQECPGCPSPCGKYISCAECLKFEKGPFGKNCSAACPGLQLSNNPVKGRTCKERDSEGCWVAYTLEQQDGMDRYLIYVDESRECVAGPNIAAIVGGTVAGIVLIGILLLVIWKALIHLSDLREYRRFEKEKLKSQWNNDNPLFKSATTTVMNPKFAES
The target in series [2] is T2, Intercellular adhesion molecule (ICAM-1), Integrin alpha-L/beta-2 (Homo sapiens) (UniProt P20701+P05362+P05107). The conditions noted are these: JY-8.
Description: 80% inhibition of JY-8 cell adhesion to ICAM-1 via leukocyte function-associated antigen-1 (LFA-1) withouot serum
The target in series [3] is T2, Intercellular adhesion molecule (ICAM-1), Integrin alpha-L/beta-2 (Homo sapiens). Particulars: JY-8. This is another data set of the same source.
Description: 70% inhibition of JY-8 cell adhesion to ICAM-1 via leukocyte function-associated antigen-1 (LFA-1) without serum
Series [4] addresses T1, Intercellular adhesion molecule (ICAM-1), Integrin alpha-L/beta-2. Nature of the series: 50% inhibition of JY-8 cell adhesion to ICAM-1 via leukocyte function-associated antigen-1 (LFA-1) with 50% FBS. The class given is cell-based.
Series [5] deals with T2, Intercellular adhesion molecule (ICAM-1), Integrin alpha-L/beta-2 (Homo sapiens). The conditions noted are these: 50% FBS.
Description: 80% inhibition of JY-8 cell adhesion to ICAM-1 via leukocyte function-associated antigen-1 (LFA-1) with 50% FBS
For series [6] the target is unchanged. Particulars: JY-8. The source holds these as a separate data set.
Description: 70% inhibition of JY-8 cell adhesion to ICAM-1 via leukocyte function-associated antigen-1 (LFA-1) with 50% FBS
The nature of series [7]: Half life of compound at 5 mg/kg after po administration was determined in rat. More on the design: dose 5 mg/kg, route oral. The format is ADME, organism-based. Particulars: in vivo.
The nature of series [8]: Oral bioavailability of compound at 5 mg/kg after po administration was determined in rat. The format is ADME, organism-based. Particulars: in vivo.
Series [9] is described as follows: Cmax of compound at 5 mg/kg after po administration was determined in rat. The class given is ADME, organism-based. More on the design: dose 5 mg/kg, route oral. Particulars: in vivo.

`O=C(O)C1CCN(c2ccccc2Sc2ccc(C3CC3C(=O)NCCCN3CCCC3=O)cc2C(F)(F)F)CC1` (stereo unspecified) displayed a concentration for half-maximal inhibition (IC50) in series [1] of 620 nM.

`O=C(NCCCN1CCCC1=O)C1CC1c1ccc(Sc2ccccc2N2CCCCC2)c(C(F)(F)F)c1` (stereo unspecified): the 50% inhibitory concentration (IC50) in series [1] came out at 40 nM.

`O=C(O)C1CCCN(c2ccccc2Sc2ccc(C3CC3C(=O)NCCCN3CCCC3=O)cc2C(F)(F)F)C1` (stereo unspecified): in series [1], the midpoint of inhibition, the IC50, lay at 50 nM.

In the case of `CCOC(=O)C1CCN(c2ccccc2Sc2ccc(C3CC3C(=O)NCCCN3CCCC3=O)cc2C(F)(F)F)CC1` (stereo unspecified), 115 nM corresponded to half-maximal inhibition in series [1] (IC50).

The molecule `CN1CCN(c2ccccc2Sc2ccc(C3CC3C(=O)NCCCN3CCCC3=O)cc2C(F)(F)F)CC1` (stereo unspecified) came in with an IC50 in [1] of 200 nM.

`CCOC(=O)C1CCCN(c2ccccc2Sc2ccc(C3CC3C(=O)NCCCN3CCCC3=O)cc2C(F)(F)F)C1` (stereo unspecified) gave an IC50 in [1] of 100 nM.

For `O=C(NCCCN1CCCC1=O)C1CC1c1ccc(Sc2ccccc2N2CCOCC2)c(C(F)(F)F)c1` (stereo unspecified), in series [1], the 50% inhibitory concentration (IC50) amounted to 15 nM.

In turn, `O=C(NCCCN1CCCC1=O)C1CC1c1ccc(Sc2ccccc2N2CCCC2)c(C(F)(F)F)c1` (stereo unspecified) gave a 50% inhibitory concentration (IC50) in [1] of 32 nM.

Consider `CC(C)c1ccccc1Sc1ccc(C2CC2C(=O)NCCC(=O)O)c(Cl)c1Cl` (single isomer, unassigned), for which, in series [1], the half-maximal inhibitory concentration (IC50) stood at 34 nM.

Consider `CC(C)c1ccccc1Sc1ccc(C2CC2C(=O)N2CCCCC2C(=O)O)c(Cl)c1Cl` (single isomer, unassigned), for which the IC50 in series [1] came out at 33 nM.

Consider `CC(C)c1ccccc1Sc1ccc(C2CC2C(=O)N2CCC(C(=O)O)CC2)c(Cl)c1Cl` (single isomer, unassigned), for which, in series [1], the IC50 is 21 nM.

On to `CC(C)c1ccccc1Sc1ccc(C2CC2C(=O)NCC(=O)O)c(Cl)c1Cl` (single isomer, unassigned), for which, in series [1], the half-maximal inhibitory concentration (IC50) was found to be 33 nM.

For `CC(C)c1ccccc1Sc1ccc(C2CC2C(=O)N2CCCC(C(=O)O)C2)c(Cl)c1Cl` (stereo in doubt), inhibition in [1] was half-maximal at 17 nM (IC50).

`CC(C)c1ccccc1Sc1ccc(C2CC2C(=O)NCCCC(=O)O)c(Cl)c1Cl` (stereo in doubt) had a 50% inhibitory concentration (IC50) in [1] of 26 nM.

In the case of `CC(C)c1ccccc1Sc1ccc(C2CC2C(=O)NCCCN2CCCC2=O)c(Cl)c1Cl` (stereo in doubt), the IC50 in [1] came to 6 nM.

The molecule `CC(C)c1ccccc1Sc1ccc(C2CC2C(=O)NCCCN2CCCC2=O)c(Cl)c1Cl` (stereo in doubt; 12a) [listing 1 of 2 here] displayed a half-maximal inhibitory concentration (IC50) in series [1] of 7 nM.

For `CC(C)c1ccccc1Sc1ccc(C2CC2C(=O)NCCCN2CCCC2=O)c(Cl)c1Cl` (stereo in doubt; 12a) [listing 2 of 2 here], in [2], the 80% effect level (IC80) was put at 63 nM. For the same molecule, in [3], the 70% effect concentration (IC70) came out at 40 nM.

`CC(C)c1ccccc1Sc1ccc(C2CC2C(=O)NCC(=O)O)c(Cl)c1Cl` (stereo in doubt; 13a) [listing 1 of 2 here]: the IC50 in [1] is 12 nM.

In series [2], `CC(C)c1ccccc1Sc1ccc(C2CC2C(=O)NCC(=O)O)c(Cl)c1Cl` (stereo in doubt; 13a) [listing 2 of 2 here] had a concentration for an effect of 80% (IC80) of 95 nM. The molecule also displayed an IC70 in [3] of 50 nM.

In turn, `CC(C)c1ccccc1Sc1ccc(C2CC2C(=O)NCCC(=O)O)c(Cl)c1Cl` (stereo in doubt; 14a) [listing 1 of 2 here] showed an IC50 in series [1] of 8 nM.

`CC(C)c1ccccc1Sc1ccc(C2CC2C(=O)NCCC(=O)O)c(Cl)c1Cl` (stereo in doubt; 14a) [listing 2 of 2 here] came in with an IC80 in [2] of 54 nM. The same molecule yielded a 70% effect concentration (IC70) in [3] of 26 nM.

In turn, `CC(C)c1ccccc1Sc1ccc(C2CC2C(=O)NCCCC(=O)O)c(Cl)c1Cl` (stereo in doubt; 15a) [listing 1 of 2 here] came in with a half-inhibitory concentration (IC50) in series [1] of 7 nM.

`CC(C)c1ccccc1Sc1ccc(C2CC2C(=O)NCCCC(=O)O)c(Cl)c1Cl` (stereo in doubt; 15a) [listing 2 of 2 here]: the 80% effect level in [2] (IC80) was put at 9 nM. In [3], this molecule gave an IC70 of 16 nM.

For the molecule `CC(C)c1ccccc1Sc1ccc(C2CC2C(=O)N2CCCCC2C(=O)O)c(Cl)c1Cl` (stereo in doubt; 16a) [listing 1 of 2 here], the IC50 in series [4] amounted to 1480 nM; in series [1], 13 nM.

For `CC(C)c1ccccc1Sc1ccc(C2CC2C(=O)N2CCCCC2C(=O)O)c(Cl)c1Cl` (stereo in doubt; 16a) [listing 2 of 2 here], the IC80 was determined as 8820 nM in series [5] and 110 nM in series [2]. The IC70 in [3] worked out at 55 nM; in series [6], 3520 nM.

In the case of `CC(C)c1ccccc1Sc1ccc(C2CC2C(=O)N2CCCC(C(=O)O)C2)c(Cl)c1Cl` (stereo in doubt; 17a) [listing 1 of 2 here], the IC50 in series [1] amounted to 6 nM.

`CC(C)c1ccccc1Sc1ccc(C2CC2C(=O)N2CCCC(C(=O)O)C2)c(Cl)c1Cl` (stereo in doubt; 17a) [listing 2 of 2 here] had an IC80 in series [2] of 25 nM. This molecule also had an IC70 in series [3] of 13 nM.

As for `CC(C)c1ccccc1Sc1ccc(C2CC2C(=O)N2CCC(C(=O)O)CC2)c(Cl)c1Cl` (stereo in doubt; 18a) [listing 1 of 2 here], half-maximal inhibition in series [1] (IC50) required 9 nM.

Molecule `CC(C)c1ccccc1Sc1ccc(C2CC2C(=O)N2CCC(C(=O)O)CC2)c(Cl)c1Cl` (stereo in doubt; 18a) [listing 2 of 2 here] gave an IC80 in [2] of 54 nM. The molecule also showed an IC70 in series [3] of 24 nM.

Consider `O=C(O)C1CCCN(c2ccccc2Sc2ccc(C3CC3C(=O)NCCCN3CCCC3=O)c(Cl)c2Cl)C1` (stereo in doubt; 27) [listing 1 of 2 here], for which the IC50 in series [4] came out at 33 nM; in [1] it was 15 nM.

Regarding `O=C(O)C1CCCN(c2ccccc2Sc2ccc(C3CC3C(=O)NCCCN3CCCC3=O)c(Cl)c2Cl)C1` (stereo in doubt; 27) [listing 2 of 2 here], the IC80 came to 210 nM in series [5] and 40 nM in [2]. The concentration for an effect of 70% (IC70) was determined as 26 nM in [3] and 120 nM in [6].

`O=C(O)C1CCCN(c2ccccc2Sc2ccc(C3CC3C(=O)NCCCN3CCCC3=O)c(Cl)c2Cl)C1` (stereo in doubt; 28) [listing 1 of 2 here]: in series [7], the half-life is 1.2 h. The bioavailability in [8] was 27%. For the same molecule, the IC50 in series [4] worked out at 29 nM; in series [1], 10 nM. Further, in [9], the peak level (Cmax) was 350 ng/mL.

As for `O=C(O)C1CCCN(c2ccccc2Sc2ccc(C3CC3C(=O)NCCCN3CCCC3=O)c(Cl)c2Cl)C1` (stereo in doubt; 28) [listing 2 of 2 here], the concentration for an effect of 80% (IC80) in [5] is 199 nM; in series [2], 26 nM. In addition, the results for the IC70 in series [3] and in [6] were 21 nM and 116 nM, respectively.

Take `O=C(O)C1CCCN(c2ccccc2Sc2ccc(C3CC3C(=O)NCCCN3CCCC3=O)c(Cl)c2Cl)C1` (stereo in doubt; 29) [listing 1 of 2 here]: the IC50 came out at 640 nM in series [4] and 31 nM in series [1].

Turning to `O=C(O)C1CCCN(c2ccccc2Sc2ccc(C3CC3C(=O)NCCCN3CCCC3=O)c(Cl)c2Cl)C1` (stereo in doubt; 29) [listing 2 of 2 here], the concentration for an effect of 80% (IC80) in [5] was 3200 nM; in series [2] it was 142 nM. Also, the concentration for an effect of 70% (IC70) in series [3] is 97 nM; in series [6], 2100 nM.

With `O=C(O)C1CCCN(c2ccccc2Sc2ccc(C3CC3C(=O)NCCCN3CCCC3=O)c(Cl)c2Cl)C1` (stereo in doubt; 30) [listing 1 of 2 here], the IC50 in [4] was determined as 27 nM; in series [1], 5 nM.

As for `O=C(O)C1CCCN(c2ccccc2Sc2ccc(C3CC3C(=O)NCCCN3CCCC3=O)c(Cl)c2Cl)C1` (stereo in doubt; 30) [listing 2 of 2 here], the figures for the IC80 in series [5] and in series [2] were 133 nM and 19 nM, respectively. Besides, the IC70 came to 10 nM in series [3] and 89 nM in series [6].

By IC50 is commonly meant the point on the concentration scale where inhibition reaches its midpoint. For orientation: IC80 means the point of the concentration-response curve where the effect stands at 80%. Lower therefore signals an effect from little substance. Broadly, the IC70 is the point of the concentration-response curve where the effect stands at 70%. The low end stands for an effect from little substance, the high end for a need for much substance. In general, half-life refers to how long it takes for the measured level to halve. What is called bioavailability is dose-corrected exposure relative to a reference, in per cent. One may read the Cmax as the maximum level reached in the sampled fluid or tissue.
